In US20050101595A1, “N-containing cycloalkyl-substituted amino-thiazole derivatives and pharmaceutical compositions for inhibiting cell proliferation and methods for their use” (PFIZER INC., priority 2003, published 2005) one finds inhibition, Ki and IC50 data, which are given here for 33 compounds.

What is called inhibition is the relative decrease from the control value, in per cent. In general, IC50 refers to the point on the concentration scale where inhibition reaches its midpoint.

The target in one assay is CDK2/Cyclin A (Homo sapiens, UniProt P24941). In words: Inhibition of CDK2/Cyclin A Retinoblastoma Kinase Activity. The conditions noted are these: for inhibition at 0.05 µM: read-out: % inhibition of CDK2 (@ 0.05 μM), compound at 0.05 μM; for Ki: apparent Ki, CDK2/proteolyzed cyclin A, Rb fragment substrate, 25 μM ATP. Type of assay: biochemical. The method, then: Cyclin-dependent kinase activity was measured by quantifying the enzyme-catalyzed, time-dependent incorporation of radioactive phosphate from [^32P]ATP or [^33P]ATP into a protein substrate. Unless noted otherwise, assays were performed in 96-well plates in a total volume of 50 μL, in the presence of 10 mM HEPES (N-[2-hydroxyethyl]piperazine-N′-[2-ethanesulfonic acid]) (pH 7.4), 10 mM MgCl2, 25 μM adenosine triphosphate (ATP), 1 mg/mL ovalbumin, 5 μg/mL leupeptin, 1 mM dithiothreitol, 10 mM β-glycerophosphate, 0.1 mM sodium vanadate, 1 mM sodium fluoride, 2.5 mM ethylene glycol-bis(β-aminoethyl ether)-N,N,N′N′-tetraacetic acid (EGTA), 2% (v/v) dimethylsulfoxide, and 0.03-0.4 μCi [^32/33P]ATP per reaction. Reactions were initiated with enzyme, incubated at 30° C., and terminated after 20 minutes by the addition of ethylenediaminetetraacetic acid (EDTA) to 250 mM. The phosphorylated substrate was then captured on a nitrocellulose or phosphocellulose membrane using a 96-well filtration manifold, and unincorporated radioactivity was removed by repeated washing with 0.85% phosphoric acid. Radioactivity was quantified by exposing the dried membranes to a phosphorimager.
Inhibition was measured relative to control wells that contained all reaction components including 2% (v/v) DMSO but no compound, after subtraction of background radioactivity measured in the absence of enzyme. Apparent Ki values of discrete compounds were measured by assaying enzyme activity in the presence of different inhibitor compound concentrations and subtracting the background radioactivity measured in the absence of enzyme. The kinetic parameters (kcat, Km for ATP) were measured for each enzyme under the usual assay conditions by determining the dependence of initial rates on ATP concentration. Inhibition data were fit to an equation for competitive inhibition using Kaleidagraph (Synergy Software), or were fit to an equation for competitive tight-binding inhibition using the software KineTic (BioKin, Ltd.).
Inhibition of CDK2/Cyclin A Retinoblastoma Kinase Activity:
CDK2 was purified using published methodology (Rosenblatt et al., “Purification and Crystallization of Human Cyclin-dependent Kinase 2,” J. Mol. Biol., vol. 230, 1993, pp. 1317-1319) from insect cells that had been infected with a baculovirus expression vector. […] A complex of CDK2 and proteolyzed cyclin A was prepared and purified by gel filtration. The substrate for this assay was the same Rb substrate fragment used for the CDK4 assays, and the methodology of the CDK2/delta cyclin A and the CDK4/delta cyclin D3 assays was essentially the same, except that CDK2 was present at 10 nM or 19 nM. The duration of the assay was 60 or 75 minutes, during which the time-dependence of product formation was linear and initial rate conditions were met. And, the percent inhibitions of the compounds of Example O through Example R were calculated as described above and shown in Table 2.

In a further assay the test system is HCT-116 cell line. In words: Inhibition of cell growth, tetrazolium salt (MTT) assay. The format is cell-based. The conditions noted are these: Homo sapiens, MTT; for inhibition at 0.175 µM: HCT-116, HCT-116 cells, compound at 0.175 uM; for IC50: HCT-116, 120 h, first HCT-116 column (c4), three to five days, read-out: HCT-116 IC50. In a few lines: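 HCT-116 cells in McCoy's 5A medium received compound 4 h after plating (0.5% v/v DMSO) and were incubated three to five days at 37° C, 5% CO2. MTT (0.2 mg/mL final) then added for 4 h; DMSO-solubilized formazan read at 540 nm against 0.5% DMSO-treated controls.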

Structures can show the parent of a compound that is named as a salt.

Consider `CC(C)N1CCN(CCCS(=O)(=O)N2CCC(Nc3nc(N)c(C(=O)c4c(F)cccc4F)s3)CC2)CC1` [Example V115], for which the inhibition at 0.05 µM at CDK2/Cyclin A came out at 75%. Further, the inhibition at 0.175 µM in the assay on HCT-116 cell line was found to be 9%.
For the compound `Nc1nc(NC2CCN(S(=O)(=O)CCCNCc3ccc(F)cc3)CC2)sc1C(=O)c1c(F)cccc1F` [Example V182, (4-Amino-2-{[1-({3-[(4-fluorobenzyl)amino]propyl}sulfonyl)-4-piperidinyl]amino}-1,3-thiazol-5-yl)(2,6-difluorophenyl)methanone.], the Ki on CDK2/Cyclin A was 4.7 nM. In the assay on HCT-116 cell line, the IC50 is 70 nM.
For `C=CCN1CCN(CCCS(=O)(=O)N2CCC(Nc3nc(N)c(C(=O)c4c(F)cccc4F)s3)CC2)CC1` [Example V74], the inhibition at 0.05 µM at CDK2/Cyclin A turned out to be 82%. The inhibition at 0.175 µM in the assay on HCT-116 cell line stood at 44%.
For the compound `Nc1nc(NC2CCN(S(=O)(=O)CCCNCCCCO)CC2)sc1C(=O)c1c(F)cccc1F` [Example V90], the inhibition at 0.05 µM at CDK2/Cyclin A turned out to be 79%. For the same compound, the inhibition at 0.175 µM with HCT-116 cell line stood at 21%.
For `Nc1nc(NC2CCN(S(=O)(=O)CCCNc3ccon3)CC2)sc1C(=O)c1c(F)cccc1F` [Example V116], in that order: 77% and 0%.
With `Nc1nc(NC2CCN(S(=O)(=O)CCCNCc3ccccn3)CC2)sc1C(=O)c1c(F)cccc1F` [Example V7], at CDK2/Cyclin A, the inhibition at 0.05 µM was 82%. Also, the inhibition at 0.175 µM in the assay with HCT-116 cell line was 0%.
For `Nc1nc(NC2CCN(S(=O)(=O)CCCNc3nccc4cccnc34)CC2)sc1C(=O)c1c(F)cccc1F` [Example V145], in that order: 83% and 0%.
As for `C=CCNCCCS(=O)(=O)N1CCC(Nc2nc(N)c(C(=O)c3c(F)cccc3F)s2)CC1` [Example V103], the inhibition at 0.05 µM at CDK2/Cyclin A came out at 84%. Moreover, the inhibition at 0.175 µM in the assay with HCT-116 cell line was found to be 37%.
As for `Nc1nc(NC2CCN(S(=O)(=O)CCCN[C@H]3CC[C@H](O)CC3)CC2)sc1C(=O)c1c(F)cccc1F` [Example V39], the inhibition at 0.05 µM on CDK2/Cyclin A was found to be 84%. For the same compound, in the assay with HCT-116 cell line, the inhibition at 0.175 µM was 0%.
On to `C=CCNCCCS(=O)(=O)N1CCC(Nc2nc(N)c(C(=O)c3c(F)cccc3F)s2)CC1` [Example K57, {2-[1-(3-Allylamino-propane-1-sulfonyl)-piperidin-4-ylamino]-4-amino-thiazol-5-yl}-(2,6-difluoro-phenyl)-methanone. Trifluoroacetic Acid Salt], for which, on CDK2/Cyclin A, the Ki turned out to be 7 nM. The IC50 in the assay on HCT-116 cell line turned out to be 480 nM.
On to `CN(CCCS(=O)(=O)N1CCC(Nc2nc(N)c(C(=O)c3c(F)cccc3F)s2)CC1)Cc1ccccc1` [Example V181, (4-Amino-2-{[1-({3-[benzyl(methyl)amino]propyl}sulfonyl)-4-piperidinyl]amino}-1,3-thiazol-5-yl)(2,6-difluorophenyl)methanone.], for which, at CDK2/Cyclin A, the Ki turned out to be 6.5 nM. In addition, in the assay with HCT-116 cell line, the IC50 came to 60 nM.
Regarding `Nc1nc(NC2CCN(S(=O)(=O)CCCNc3nnn[nH]3)CC2)sc1C(=O)c1c(F)cccc1F` [Example V84], the inhibition at 0.05 µM at CDK2/Cyclin A was determined as 24%. Also, in the assay on HCT-116 cell line, the inhibition at 0.175 µM turned out to be 0%.
Turning to `Cc1cccc(CNCCCS(=O)(=O)N2CCC(Nc3nc(N)c(C(=O)c4c(F)cccc4F)s3)CC2)c1` [Example V180, (4-Amino-2-{[1-({3-[(3-methylbenzyl)amino]propyl}sulfonyl)-4-piperidinyl]amino}-1,3-thiazol-5-yl)(2,6-difluorophenyl)methanone.], at CDK2/Cyclin A, the Ki stood at 4 nM. In addition, the IC50 with HCT-116 cell line is 90 nM.
On to `Nc1nc(NC2CCN(S(=O)(=O)CCCN[C@@H]3CCCC[C@@H]3CO)CC2)sc1C(=O)c1c(F)cccc1F` [Example V71], for which the inhibition at 0.05 µM on CDK2/Cyclin A worked out at 85%. Moreover, in the assay with HCT-116 cell line, the inhibition at 0.175 µM was determined as 5%.
`Nc1nc(NC2CCN(S(=O)(=O)CCCNc3ccccn3)CC2)sc1C(=O)c1c(F)cccc1F` [Example V2]: the inhibition at 0.05 µM on CDK2/Cyclin A was found to be 85%. The inhibition at 0.175 µM in the assay with HCT-116 cell line came to 6%.
`CC(C)(C)NCCC(=O)N1CCC(Nc2nc(N)c(C(=O)c3c(F)cccc3F)s2)CC1` [Example U4, Acetic Acid Salt]: the inhibition at 0.5 µM on CDK2/Cyclin A (@0.5 μM, printed in the CDK2 Ki column) was 40%. Also, the half-inhibitory concentration (IC50) in the assay with HCT-116 cell line was greater than 5000 nM.
Regarding `C#CCN(C)CCCS(=O)(=O)N1CCC(Nc2nc(N)c(C(=O)c3c(F)cccc3F)s2)CC1` [Example V65], on CDK2/Cyclin A, the inhibition at 0.05 µM came to 79%. In addition, the inhibition at 0.175 µM with HCT-116 cell line amounted to 30%.
As to `CN(C)CCCN(C)CCCS(=O)(=O)N1CCC(Nc2nc(N)c(C(=O)c3c(F)cccc3F)s2)CC1` [Example V32], the inhibition at 0.05 µM on CDK2/Cyclin A was found to be 78%. Further, the inhibition at 0.175 µM with HCT-116 cell line was determined as 11%.
Consider `CCc1ccc(C)cc1NCCCS(=O)(=O)N1CCC(Nc2nc(N)c(C(=O)c3c(F)cccc3F)s2)CC1` [Example V112], for which the inhibition at 0.05 µM at CDK2/Cyclin A turned out to be 88%. In addition, the inhibition at 0.175 µM in the assay on HCT-116 cell line stood at 57%.
For `Nc1nc(NC2CCN(S(=O)(=O)CCCNC3CCCCCCC3)CC2)sc1Cc1c(F)cccc1F` [Example V158], on CDK2/Cyclin A, the inhibition at 0.05 µM worked out at 90%. Also, the inhibition at 0.175 µM with HCT-116 cell line was 23%.
For `CC(C)CCNCCCS(=O)(=O)N1CCC(Nc2nc(N)c(C(=O)c3c(F)cccc3F)s2)CC1` [Example V60], in that order: 84% and 18%.
As for `CN(CCCS(=O)(=O)N1CCC(Nc2nc(N)c(C(=O)c3c(F)cccc3F)s2)CC1)Cc1ccco1` [Example V179, (4-Amino-2-{[1-({3-[(2-furylmethyl)(methyl)amino]propyl}sulfonyl)-4-piperidinyl]amino}-1,3-thiazol-5-yl)(2,6-difluorophenyl)methanone.], the Ki at CDK2/Cyclin A stood at 11 nM. Further, the IC50 in the assay with HCT-116 cell line turned out to be 170 nM.
For the compound `CN(C)CCCNCCCS(=O)(=O)N1CCC(Nc2nc(N)c(C(=O)c3c(F)cccc3F)s2)CC1` [Example V15], the inhibition at 0.05 µM on CDK2/Cyclin A came out at 62%. Further, in the assay with HCT-116 cell line, the inhibition at 0.175 µM was found to be 11%.
For `CCC(O)CNCCCS(=O)(=O)N1CCC(Nc2nc(N)c(C(=O)c3c(F)cccc3F)s2)CC1` (stereo not drawn) [Example V83], in that order: 79% and 0%.
In the case of `CCN(CCCCO)CCCS(=O)(=O)N1CCC(Nc2nc(N)c(C(=O)c3c(F)cccc3F)s2)CC1` [Example V108], the inhibition at 0.05 µM at CDK2/Cyclin A was determined as 79%. For the same compound, the inhibition at 0.175 µM in the assay on HCT-116 cell line was determined as 2%.
`Nc1nc(NC2CCN(S(=O)(=O)CCCNCc3cccs3)CC2)sc1C(=O)c1c(F)cccc1F` [Example V28]: the inhibition at 0.05 µM at CDK2/Cyclin A worked out at 91%. Further, in the assay with HCT-116 cell line, the inhibition at 0.175 µM turned out to be 33%.
As for `Nc1nc(NC2CCN(S(=O)(=O)CCCNCCCN3CCCC3)CC2)sc1C(=O)c1c(F)cccc1F` [Example V73], the inhibition at 0.05 µM on CDK2/Cyclin A was 82%. Besides, in the assay on HCT-116 cell line, the inhibition at 0.175 µM was 0%.
With `Nc1nc(NC2CCN(S(=O)(=O)CCCNc3ccc4cccc(O)c4n3)CC2)sc1C(=O)c1c(F)cccc1F` [Example V142], at CDK2/Cyclin A, the inhibition at 0.05 µM stood at 80%. Also, the inhibition at 0.175 µM with HCT-116 cell line worked out at 0%.
In the case of `Nc1nc(NC2CCN(S(=O)(=O)CCCN3C[C@@H]4C[C@H]3CO4)CC2)sc1C(=O)c1c(F)cccc1F` [Example V143], at CDK2/Cyclin A, the inhibition at 0.05 µM came to 90%. Further, in the assay on HCT-116 cell line, the inhibition at 0.175 µM was determined as 34%.
Turning to `CC(=O)N1CCN(CCCS(=O)(=O)N2CCC(Nc3nc(N)c(C(=O)c4c(F)cccc4F)s3)CC2)CC1` [Example V29], the inhibition at 0.05 µM on CDK2/Cyclin A was determined as 81%. The inhibition at 0.175 µM in the assay with HCT-116 cell line was found to be 0%.
Take `C=CCN(C)CCCS(=O)(=O)N1CCC(Nc2nc(N)c(C(=O)c3c(F)cccc3F)s2)CC1` [Example V135]: the inhibition at 0.05 µM at CDK2/Cyclin A is 78%. Further, the inhibition at 0.175 µM in the assay on HCT-116 cell line came out at 82%.
Turning to `CN(C)C1CCN(CCCS(=O)(=O)N2CCC(Nc3nc(N)c(C(=O)c4c(F)cccc4F)s3)CC2)C1` (stereo not drawn) [Example V99], the inhibition at 0.05 µM on CDK2/Cyclin A was determined as 69%. Also, in the assay on HCT-116 cell line, the inhibition at 0.175 µM was 0%.
As for `Nc1nc(NC2CCN(S(=O)(=O)CCCNCCc3cccs3)CC2)sc1C(=O)c1c(F)cccc1F` [Example V76], the inhibition at 0.05 µM at CDK2/Cyclin A came out at 89%. Further, in the assay with HCT-116 cell line, the inhibition at 0.175 µM was found to be 44%.
